Reference: patent publication US20250249056A1, “CANCER THERAPIES COMPRISING A NUCLEAR EXPORT INHIBITOR AND AN ONCOLYTIC VIRUS” (priority 2022, published 2025)
“Also recorded” adds a separate entry of the source.

Columns and labels:
MYXV [1] = test: Viral replication assay: progeny virus titration on permissive rabbit RK13 cells; type: cell-based, myxoma virus; details: PANC-1, Colo205, and MDA-MB435; selinexor; 24, 48, 72 h
Procedure: Viral titers in different human cancer cell lines were determined using a viral replication assay. Cells were seeded in 24-well plates (2×10^5 cells/well). The next day, the cells were treated with different concentrations of leptomycin B (LMB) or selinexor diluted in DMEM for 1 hour. MYXV was added to the cells and incubated for one hour at 37° C. After 1 hour, the unbound viruses were washed away using DMEM, and DMEM with LMB or selinexor was added to the cells. Cells were harvested in DMEM without LMB or selinexor at the indicated time points. After harvesting the cells, they were stored at −80° C. until processing. Samples were subjected to three freeze/thaw cycles and one-minute sonification to lyse cells and release the viral particles. Afterwards, different dilutions were prepared in DMEM and plated on rabbit RK13 and foci were counted after 48 hours using a fluorescent microscope. All assays and dilutions were performed in triplicate.

PANC-1 cells = test: CyQUANT NF cell proliferation assay (PANC-1); type: cell-based, human; details: after 24 hours compared to mock treated cells, selinexor 0.1 or 1 μM, multiple MOI
Procedure: Cell Proliferation Assay: To measure cancer cell proliferation based on the amount of cellular DNA, the CyQuant™ NF Cell Proliferation Assay Kit (Invitrogen) was used according to the manufacturer's instructions. Briefly, PANC-1, HT29, MDA-MB435, and Colo205 cells were seeded in a 96-well plate (1×10^4 cells/well) and left to attach to the wells overnight. The next day, the medium was removed and replaced with 50 μL medium containing different concentrations of selinexor (0-1 μM). After an hour of incubation with selinexor, the virus was added to different MOIs (0.5-5), bringing the end volume of every well up to 100 μL. A 1× dye binding solution was prepared by adding 9 μL of the CyQuant™ NF Dye reagent in 4.5 mL Hank's Balanced Salt Solution (HBSS) buffer (Invitrogen). After 24, 48, 72, and 96 hours of incubation, the medium was removed from the cells and 50 μL 1× dye solution was added to all wells. The microplate was covered to protect it from light and was incubated for 30-60 minutes in a 5% CO2 incubator at 37° C. Subsequently, cell proliferation was quantified by measuring fluorescence with an excitation of 485 nm and emission of 530 nm in a VarioSkan Lux Microplate reader (Thermo Fisher). All experiments were performed in quadruple and normalized to mock-treated cells.

[2] = system: PANC-1, Colo205, HT29, and MDMB435 cells; test: Cell viability assay (MTS); type: cell-based, human
Procedure: To further assess the inhibition of cell proliferation, and investigate if cell death is enhanced, cell viability assays were performed using an MTS assay to detect metabolic activity in active cells. For this assay, PANC-1 (FIG. 5A through FIG. 5D), Colo205 (FIG. 5E through FIG. 5H), HT29, and MDMB435 cells were treated with different concentrations of selinexor, infected with MYXB at different MOIs, or treated with a combination of selinexor and MYXB, and cell viability was measured at different time points.
Cell Viability Assay: To assess the viability of different human cancer cells after selinexor treatment or MYXV infection, 10,000 cells were seeded into each well of a 96-well plate. The next day, cells were treated with different concentrations of selinexor, infected with different MOIs of MYXV, or treated with different concentrations of selinexor for 1 hour followed by infection with different MOIs of MYXV. A minimum of four wells were used for each treatment condition, and untreated cells (mock) served as controls. Cell viability was assessed at 24, 48, 72, and 96 hours using an MTS assay.

Colo205 xenograft tumors = test: Colo205 xenograft tumor model in NSG mice; type: in vivo
Procedure: (§1) To test the ability of selinexor to enhance MYXV replication in vivo, a xenograft tumor model was established in immunodeficient NSG mice. Human Colo205 (FIG. 7) and HT29 (FIG. 8) cells were injected subcutaneously on both sides of the flank to generate tumors (FIG. 7A). After the tumors size reached between 100-200 mm^3 (2-3 weeks), mice were separated into treatment groups to have approximately equal average tumor sizes. Animals (n=5) were treated with PBS (oral and IT right tumor), selinexor (oral, 15 mg/kg), vMyx-Fluc (wild-type MYXV expressing Firefly luciferase and TdTomato; IT left tumor, 1×10^7 FFU), or selinexor (oral) and vMyx-Fluc (IT left tumor). After 48 hours post-treatment mice were imaged using an IVIS system for luciferase expression. […] Subsequently, mice received 2nd and 3rd doses of selinexor and a second IT injection of MYXV in the same tumor. […] Additionally, tumor burden was measured on both flanks during the course of treatment (FIG. 7F, FIG. 7G, FIG. 8E, and FIG. 8F).
(§2) Animal Studies: Male and female NSG mice were purchased from Jackson laboratory at 6-8 weeks of age. Animals were housed under sterile conditions. The animals were acclimatized for at least seven days before tumor implantation or any experimental procedures. Cells (1×10^6/mouse in 100 μL PBS) were subcutaneously injected into the flanks of NSG mice. When the average tumor volumes reached 50-200 mm^3, the mice were randomized into different treatment groups of five or six animals such that each treatment group had approximately the same average tumor volume. Tumor volume was measured two or three times per week as follows: volume=(length×width^2)/2. When the tumor volume reached 1.5-2 cm^3 animals were euthanized and tumors were collected for histology or processed for virus titration. To detect MYXV replication in the tumor bed luciferin was injected via IP delivery and bioluminescence images taken (Xenogen IVIS 2000).

HT29 xenograft tumors = test: HT29 xenograft tumor model in NSG mice; type: in vivo
Procedure: as §1, §2

MYXV [3] = test: MYXV reporter gene expression (GFP/TdTomato) and foci by fluorescence microscopy in human cancer cell lines
[4] = 48 hours after first vMyx-Fluc IT injection, selinexor oral 15 mg/kg
[5] = both flanks, selinexor oral 15 mg/kg, vMyx-Fluc IT 1×10^7 FFU

SMILES: O=C(/C=C\n1cnc(-c2cc(C(F)(F)F)cc(C(F)(F)F)c2)n1)NNc1cnccn1 [selinexor]
- increase in virus production compared to infection with MYXV alone (MYXV [1]): 10-100 fold
- cell proliferation (DNA content) (PANC-1 cells): significant reductions in cell proliferation
- cell viability ([2]; selinexor 0.5 μM or 1 μM, over time, all cells tested): 50%
- cell viability ([2]; selinexor alone 0.1 μM or 0.05 μM): no effect on cell viability; also recorded: almost no effect
- luciferase expression (IVIS) vs virus alone (Colo205 xenograft tumors; [4]): significantly higher levels of luciferase
- luciferase signal (IVIS) vs virus alone (Colo205 xenograft tumors; after second treatment): significantly enhanced level of luciferase signal
- tumor burden compared to PBS or MYXV-only (Colo205 xenograft tumors; [5]): significantly reduced tumor burden
- luciferase expression (IVIS) vs virus alone (HT29 xenograft tumors; [4]): significantly higher levels of luciferase
- luciferase signal (IVIS) vs virus alone (HT29 xenograft tumors; after second treatment): significantly enhanced level of luciferase signal
- tumor burden compared to PBS or MYXV-only (HT29 xenograft tumors; [5]): significantly reduced tumor burden
- GFP and TdTomato reporter protein expression (MYXV [3]; PANC-1, Colo205, MDA-MB435, HCT116, selinexor 0.1-10 μM pre-treatment 1 h, vMyx-GFP-TdTomato MOI 5, 48 h post-infection): Enhanced GFP and TdTomato reporter protein expression
- foci formation in restricted human cancer cell lines (MYXV [3]; infected at low MOI, selinexor treatment): formation of small foci
- cell death caused by selinexor alone (MYXV [3]; selinexor 10 μM or higher, all cancer cell lines tested): enhanced cell death
